Bounds are passed on as bounds.

This test deals with Mitogen-activated protein kinase 1 (Homo sapiens, UniProt P28482). Put plainly: ERK1 & ERK2 were then activated by the addition of F1-Substrate, ATP and metal solution and incubated for 1 h at rt. After 1 h, the reaction was terminated by the addition of […] of Termination Buffer (QuickScout Screening Assist MSA; Carna Biosciences) to the well.
Chain of Mitogen-activated protein kinase 1 (P28482 whole entry): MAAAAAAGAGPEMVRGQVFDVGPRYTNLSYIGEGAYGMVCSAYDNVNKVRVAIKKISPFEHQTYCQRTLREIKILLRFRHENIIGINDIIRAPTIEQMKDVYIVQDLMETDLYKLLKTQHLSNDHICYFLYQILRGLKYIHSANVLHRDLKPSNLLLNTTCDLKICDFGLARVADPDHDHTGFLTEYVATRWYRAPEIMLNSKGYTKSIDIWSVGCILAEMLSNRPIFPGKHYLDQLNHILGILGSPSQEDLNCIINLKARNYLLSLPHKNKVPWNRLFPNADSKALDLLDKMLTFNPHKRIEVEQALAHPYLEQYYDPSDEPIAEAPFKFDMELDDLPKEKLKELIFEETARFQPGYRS

As usually defined, the IC50 is the concentration that gives 50% inhibition. Low values mean greater potency, high ones weaker potency. In turn, `Cc1ncc(-c2n[nH]c3ccc(N4CC[C@]5(CCN(CC(=O)N6CC=C(c7ccc(-c8ncn(C)n8)cc7)CC6)C5)C4=O)nc23)s1` displayed an IC50 of under 50 nM.

(Values after ChEMBL document CHEMBL5728306, “Spirocyclic compounds” (2021).)
